Experimental data from patent publication US20250025443A1, “COMPOUNDS AND METHODS FOR TREATING CORONA VIRUSES” (CLEAR CREEK BIO, INC., priority 2021, published 2025).
Read-outs that look alike come from different tables or passages of the source.

Target: SARS-CoV-2 Papain-Like Protease (PLpro) (Severe acute respiratory syndrome coronavirus 2 (2019-nCoV) (SARS-CoV-2), UniProt P0DTD1)
Assay: biochemical
Conditions: read-out: PLpro IC50
[1] = PLpro enzymatic fluorescence assay, class symbols
[2] = SARS-CoV-2 PLpro enzymatic fluorescence assay

In the case of `COc1cc2c(C3(NC(=O)c4cc(OCC5CCN5C)ccc4C)CC3)cccc2cn1` (stereo not drawn) [Compound 456, N-(1-(3-Methoxyisoquinolin-5-yl)cyclopropyl)-2-methyl-5-((1-methylazetidin-2-yl)methoxy)benzamide], the IC50 [1] is reported as < 100 nM.
With `Cc1cc2cc(CN3CCOCC3)[nH]c2cc1C(=O)NC1(c2cccc3ccccc23)CC1` [Compound 213, 5-Methyl-2-(morpholinomethyl)-N-(1-(naphthalen-1-yl)cyclopropyl)-1H-indole-6-carboxamide] the IC50 [2] was 1000 to 5000 nM.
For `Cc1ccc(OC[C@@H]2CCN2C)cc1C(=O)NC1(c2cc(-c3ccc(C(C)O)s3)cc3ncccc23)CC1` (stereo partly drawn) [Compound 762, N-(1-(7-(5-(1-Hydroxyethyl)thiophen-2-yl)quinolin-5-yl)cyclopropyl)-2-methyl-5-(((S)-1-methylazetidin-2-yl)methoxy)benzamide], the IC50 [1] was < 100 nM.
With `COc1cc(C2(NC(=O)c3cc(OC[C@@H]4C[C@@H](F)CN4C)ccc3C)CC2)c2ccccc2c1` [Compound 489, 5-(((2S,4R)-4-Fluoro-1-methylpyrrolidin-2-yl)methoxy)-N-(1-(3-methoxynaphthalen-1-yl)cyclopropyl)-2-methylbenzamide] the IC50 [2] was < 100 nM.
With `Cc1ccc(OC[C@@H]2CCN2C)cc1C(=O)NC1(c2cc(N(C)S(C)(=O)=O)cc3ncccc23)CC1` [Compound 818, (S)-2-Methyl-5-((1-methylazetidin-2-yl)methoxy)-N-(1-(7-(N-methylmethylsulfonamido)quinolin-5-yl)cyclopropyl)benzamide] the IC50 [1] was < 100 nM.
In the case of `Cc1cc2ccn(CC3COC3)c2cc1C(=O)NC1(c2cccc3ccccc23)CC1` [Compound 295, 5-Methyl-N-(1-(naphthalen-1-yl)cyclopropyl)-1-(oxetan-3-ylmethyl)-1H-indole-6-carboxamide], the IC50 [2] is reported as 100 to 1000 nM.
`Cc1ccc(OCCN(C)C)cc1C(=O)NC1(c2cccc(C3=CCCCC3)c2)CC1` [Compound 338, 5-(2-(Dimethylamino)ethoxy)-2-methyl-N-(1-(2′,3′,4′,5′-tetrahydro-[1,1′-biphenyl]-3-yl)cyclopropyl)benzamide] showed an IC50 [2] of 1000 to 5000 nM.
In the case of `Cc1ccc(OCCN(C)C)cc1C(=O)NC1(c2cccc3ccc(O)cc23)CC1` [Compound 417, 5-(2-(Dimethylamino)ethoxy)-N-(1-(7-hydroxynaphthalen-1-yl)cyclopropyl)-2-methylbenzamide], the IC50 [2] is reported as < 100 nM.
With `COc1cc(C2(NC(=O)c3cc(OCC(N)C(C)C)ccc3C)CC2)c2cccnc2c1` (stereo not drawn) [Compound 572, 5-(2-Amino-3-methylbutoxy)-N-(1-(7-methoxyquinolin-5-yl)cyclopropyl)-2-methylbenzamide] the IC50 [1] was < 100 nM.
In the case of `Cc1ccc(OCCN)cc1C(=O)NC1(c2cccc3ncccc23)CC1` [Compound 374, 5-(2-Aminoethoxy)-2-methyl-N-(1-(quinolin-5-yl)cyclopropyl)benzamide], the IC50 [2] is reported as < 100 nM.
Molecule `COc1ncccc1Nc1ccc(C)c(C(=O)N[C@H](C)c2cccc3ccccc23)c1` [Compound 115, (R)-5-((2-Methoxypyridin-3-yl)amino)-2-methyl-N-(1-(naphthalen-1-yl)ethyl)benzamide] has an IC50 [2] of 1000 to 5000 nM.
With `Cc1ccc(OC[C@@H]2CCN2)cc1C(=O)NC1(c2cc(-c3ncco3)cc3ncccc23)CC1` [Compound 694, (S)-5-(Azetidin-2-ylmethoxy)-2-methyl-N-(1-(7-(oxazol-2-yl)quinolin-5-yl)cyclopropyl)benzamide] the IC50 [1] was < 100 nM.
`Cc1ccc(OCC2CCN2CC2CC2)cc1C(=O)NC1(c2cccc3ccccc23)CC1` (stereo not drawn) [Compound 332, 5-((1-(Cyclopropylmethyl)azetidin-2-yl)methoxy)-2-methyl-N-(1-(naphthalen-1-yl)cyclopropyl)benzamide] was tested, and the IC50 [2] was < 100 nM.
`C=Cc1cc(C2(NC(=O)c3cc(OC[C@H](C)NC)ccc3C)CC2)c2cccnc2c1` [Compound 661, (S)-2-Methyl-5-(2-(methylamino)propoxy)-N-(1-(7-vinylquinolin-5-yl)cyclopropyl)benzamide] was tested, and the IC50 [1] was < 100 nM.
In the case of `Cc1ccc(Nc2nccs2)cc1C(=O)N[C@H](C)c1cccc2ccccc12` [Compound 107, (R)-2-Methyl-N-(1-(naphthalen-1-yl)ethyl)-5-(thiazol-2-ylamino)benzamide], the IC50 [2] is reported as > 5000 nM.
